We go through one compound from publication PMC7151078, “A Novel NMDA Receptor Antagonist Protects against Cognitive Decline Presented by Senescent Mice” (Pharmaceutics, 2020).

Usually IC50 stands for the concentration at which inhibition is half-maximal.

The test system of test [1] is SAMR1 and SAMP8 mice. Put plainly: Hippocampal gene expression by real-time qPCR. Type of test: in vivo, mouse. Particulars: hippocampus. How it is done:
Male SAMR1 and SAMP8 mice (n = 41) with 20-weeks-old were used to carry out cognitive and molecular analysis. The animals were randomly divided into four groups: SAMR1 control (SR1 Ct) group (n = 11), SAMP8 control (SP8 Ct) group (n = 8), SAMR1 treated with RL-208 (SR1 RL-208 (5 mg/Kg)) group (n = 10) and SAMP8 treated with RL-208 (SP8 RL-208 (5 mg/Kg)) group (n = 12). Animals had free access to food and water, under standard temperature conditions (22±2 °C) and 12h:12h light-dark cycles (300 lux/0 lux). RL-208, (3,4,8,9-tetramethyltetracyclo[4.4.0.0^3,9.0^4,8]dec-1-yl)-methylamine hydrochloride, (5 mg/kg/day) was administered through drinking water for four weeks before starting the cognitive test. RL-208 was administered up to euthanasia (Figure 1A). Water consumption was controlled each week for each cage and strain. Afterwards, RL-208 concentration was adjusted accordingly to reach the optimal dose for each cage. Total RNA isolation from hippocampal samples was carried out using TRIsure^TM reagent following the manufacturer’s instructions (Bioline, Meridian Bioscience Inc., UK). The yield, purity, and quality of RNA were determined spectrophotometrically with a NanoDrop^TM ND-1000 (Thermo Scientific, Wilmington, DE, USA) apparatus and an Agilent 2100B Bioanalyzer (Agilent Technologies, Palo Alto, CA, USA). RNAs with 260/280 ratios and RIN higher than 1.9 and 7.5, respectively, were selected. Reverse transcription-polymerase chain reaction (RT-PCR) was performed as follows: 2 μg of messenger RNA (mRNA) was reverse-transcribed using the High Capacity cDNA Reverse Transcription kit (Applied Biosystems, Foster City, CA, USA). Real-time quantitative PCR (qPCR) was used to quantify the mRNA expression of OS and synaptic plasticity genes listed in Table S2. SYBR® Green real-time PCR was performed on a Step One Plus Detection System (Applied-Biosystems, Foster City, CA, USA) employing SYBR® Green PCR Master Mix (Applied-Biosystems, Foster City, CA, USA). Each reaction mixture contained 6.75 μL of complementary DNA (cDNA) (which concentration was 2 μg), 0.75 μL of each primer (which concentration was 100 nM), and 6.75 μL of SYBR® Green PCR Master Mix (2X). Data were analyzed utilizing the comparative cycle threshold (Ct) method (ΔΔCt), where the housekeeping gene level was used to normalize differences in sample loading and preparation. Normalization of expression levels was performed with β-actin for SYBR® Green-based real-time PCR results. Each sample was analyzed in duplicate, and the results represent the n-fold difference of the transcript levels among different groups.
A general note: Real-time PCR tracks product formation cycle by cycle.

The next test relates to NMDAR. Further details: method as in PMID 29767953. Particulars: early preclinical in vitro experiments; cited from earlier work.
For test [2], the system named is SAMR1 and SAMP8 mice. Put plainly: Object location test (OLT). The format is in vivo, mouse. The settings on record: both treated mice groups (SR1 and SP8), 5 mg/kg/day. How it is done: Male SAMR1 and SAMP8 mice (n = 41) with 20-weeks-old were used to carry out cognitive and molecular analysis. The animals were randomly divided into four groups: SAMR1 control (SR1 Ct) group (n = 11), SAMP8 control (SP8 Ct) group (n = 8), SAMR1 treated with RL-208 (SR1 RL-208 (5 mg/Kg)) group (n = 10) and SAMP8 treated with RL-208 (SP8 RL-208 (5 mg/Kg)) group (n = 12). Animals had free access to food and water, under standard temperature conditions (22±2 °C) and 12h:12h light-dark cycles (300 lux/0 lux). RL-208, (3,4,8,9-tetramethyltetracyclo[4.4.0.0^3,9.0^4,8]dec-1-yl)-methylamine hydrochloride, (5 mg/kg/day) was administered through drinking water for four weeks before starting the cognitive test. RL-208 was administered up to euthanasia (Figure 1A). Water consumption was controlled each week for each cage and strain. Afterwards, RL-208 concentration was adjusted accordingly to reach the optimal dose for each cage. […] Trials were recorded using a camera mounted above the open field area, and the total exploration time was determined by scoring the amount of time (seconds) spent sniffing the object in the new location (TN) and the object in the old location (TO). In order to evaluate the cognitive performance, the DI was calculated, which is defined as (TN-TO)/(TN+TO).

Consider `CC12CC3CC1(C)C1(C)CC3(CN)CC21C.Cl` [RL-208, (3,4,8,9-tetramethyltetracyclo [4.4.0.0^3,9.0^4,8]dec-1-yl)methylamine hydrochloride], for which, in the test with SAMR1 and SAMP8 mice [1] (RL-208 treated mice groups vs control groups), the Tgf gene expression result is “significant gain”. Moreover, the Vgf gene expression result in the test on SAMR1 and SAMP8 mice [1] (SP8 RL-208 vs SP8 Ct) is given as “significant increase”; in the test on SAMR1 and SAMP8 mice [1] (between SR1 mice groups), “no changes”. Further, the Cox2 gene expression result in the test on SAMR1 and SAMP8 mice [1] (treated groups vs controls, significant in the SP8 strain) is “decreased”. The Hmox1 gene expression result with SAMR1 and SAMP8 mice [1] (treated mice) is “elevated”. In addition, the IC50 in the test with NMDAR was about 1000 nM. Moreover, the “OLT spatial memory (DI)” value with SAMR1 and SAMP8 mice [2] is “significant higher DI values”.
